Assay results: patent US20210255193A1, “LYSINE REACTIVE PROBES AND USES THEREOF” (The Scripps Research Institute, priority 2017, published 2021)

Tests used:
Test in all cases: competitive isoTOP-ABPP
Assay type in all cases: binding
[1] = molecular target: T1, ERAP1 Endoplasmic reticulum aminopeptidase 1 (Homo sapiens, UniProt Q9NZ08); details: for R value (DMSO/fragment) for probe 1 labeling: Q9NZ08_K685
T1 construct: endogenous in cells; host or cells: MDA-MB-231 lysate
How it was run: (§1)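 Fragments at 50 μM (activated esters) or 100 μM (guanidinylating agents) were incubated with 0.5 ml lysate before probe labeling. After 0.1 mM STP-alkyne for 1 h, samples were clicked to isotopically distinct TEV tags, and R taken as DMSO-over-compound MS1 peak-area ratio.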

[2] = molecular target: T2, STRN3 Striatin-3 (Homo sapiens, UniProt Q13033); details: for R value (DMSO/fragment) for probe 1 labeling: Q13033_K755; for isoTOP-ABPP ratio (R) at liganded lysine Q13033_K755: sol, 231
T2 construct: isoTOP-ABPP experiments performed in cell lysates (in vitro); endogenous in cells; host or cells: soluble proteome of human cancer cell lines (MDA-MB-231, Ramos, Jurkat)
T2 sequence (Q13033 1-797): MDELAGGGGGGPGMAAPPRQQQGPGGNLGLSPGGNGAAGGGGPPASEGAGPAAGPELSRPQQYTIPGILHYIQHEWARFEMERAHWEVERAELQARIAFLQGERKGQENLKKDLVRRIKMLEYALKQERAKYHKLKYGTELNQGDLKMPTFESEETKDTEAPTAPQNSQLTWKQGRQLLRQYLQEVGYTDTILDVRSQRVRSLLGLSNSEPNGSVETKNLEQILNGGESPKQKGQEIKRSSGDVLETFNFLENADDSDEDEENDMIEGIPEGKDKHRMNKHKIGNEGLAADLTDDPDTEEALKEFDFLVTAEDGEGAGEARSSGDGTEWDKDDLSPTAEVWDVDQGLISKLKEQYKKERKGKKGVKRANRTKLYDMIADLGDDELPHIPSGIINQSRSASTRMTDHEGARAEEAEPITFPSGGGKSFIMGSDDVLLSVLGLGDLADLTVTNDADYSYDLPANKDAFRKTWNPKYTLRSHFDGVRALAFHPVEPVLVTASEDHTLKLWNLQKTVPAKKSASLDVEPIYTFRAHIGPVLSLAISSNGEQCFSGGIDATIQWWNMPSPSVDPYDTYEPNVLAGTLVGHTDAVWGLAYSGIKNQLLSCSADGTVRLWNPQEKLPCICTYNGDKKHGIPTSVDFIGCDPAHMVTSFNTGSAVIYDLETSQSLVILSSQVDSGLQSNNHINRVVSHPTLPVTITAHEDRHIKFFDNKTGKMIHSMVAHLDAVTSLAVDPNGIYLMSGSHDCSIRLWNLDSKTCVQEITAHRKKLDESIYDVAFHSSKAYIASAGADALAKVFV
How it was run: as §1

[3] = molecular target: T3, KIAA1967 DBIRD complex subunit KIAA1967 (Homo sapiens, UniProt Q8N163)
T3 construct: isoTOP-ABPP experiments performed in cell lysates (in vitro); endogenous in cells; host or cells: soluble proteome of human cancer cell lines (MDA-MB-231; Ramos and Jurkat also prepared)
T3 sequence (Q8N163 whole entry, one chain of several): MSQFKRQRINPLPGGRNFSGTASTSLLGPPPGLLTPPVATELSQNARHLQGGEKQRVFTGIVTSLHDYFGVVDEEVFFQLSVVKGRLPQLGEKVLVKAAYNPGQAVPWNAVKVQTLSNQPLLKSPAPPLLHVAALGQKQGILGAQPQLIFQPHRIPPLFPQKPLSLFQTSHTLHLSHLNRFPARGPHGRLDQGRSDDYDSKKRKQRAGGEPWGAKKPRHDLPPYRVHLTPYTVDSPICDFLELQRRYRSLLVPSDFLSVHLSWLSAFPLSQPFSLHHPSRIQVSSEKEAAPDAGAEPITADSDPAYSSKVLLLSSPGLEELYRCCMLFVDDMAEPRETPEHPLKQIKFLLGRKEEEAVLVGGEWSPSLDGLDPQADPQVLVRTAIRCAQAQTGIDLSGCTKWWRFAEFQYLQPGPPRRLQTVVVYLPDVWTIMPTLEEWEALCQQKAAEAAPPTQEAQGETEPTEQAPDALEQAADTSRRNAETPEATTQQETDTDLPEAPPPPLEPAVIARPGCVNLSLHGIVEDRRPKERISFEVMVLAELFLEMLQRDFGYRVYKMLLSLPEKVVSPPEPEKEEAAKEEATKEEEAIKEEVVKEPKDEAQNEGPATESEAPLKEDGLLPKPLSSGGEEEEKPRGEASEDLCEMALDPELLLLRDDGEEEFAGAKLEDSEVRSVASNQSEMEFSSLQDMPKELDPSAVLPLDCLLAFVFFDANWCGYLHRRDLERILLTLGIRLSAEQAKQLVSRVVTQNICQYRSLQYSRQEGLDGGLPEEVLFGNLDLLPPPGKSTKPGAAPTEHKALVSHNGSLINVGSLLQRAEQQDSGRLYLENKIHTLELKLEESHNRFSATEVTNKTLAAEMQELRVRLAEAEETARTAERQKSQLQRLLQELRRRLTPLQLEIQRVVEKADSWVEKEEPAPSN
How it was run: as §1

[4] = molecular target: T4, DYNC1H1 Cytoplasmic dynein 1 heavy chain 1 (Homo sapiens, UniProt Q14204); details: for R value (DMSO/fragment) for probe 1 labeling: Q14204_K1649; for isoTOP-ABPP ratio (R) at liganded lysine Q14204_K1649: sol, 231
T4 construct: isoTOP-ABPP experiments performed in cell lysates (in vitro); endogenous in cells; host or cells: soluble proteome of human cancer cell lines (MDA-MB-231, Ramos, Jurkat)
How it was run: as §1

[5] = molecular target: T5, GLUD1 Glutamate dehydrogenase 1, mitochondrial (Homo sapiens, UniProt P00367); details: for R value (DMSO/fragment) for probe 1 labeling: P00367_K480; for isoTOP-ABPP ratio (R) at liganded lysine P00367_K480: sol, 231
T5 construct: isoTOP-ABPP experiments performed in cell lysates (in vitro); endogenous in cells; host or cells: MDA-MB-231 soluble lysate
T5 sequence (P00367 54-558): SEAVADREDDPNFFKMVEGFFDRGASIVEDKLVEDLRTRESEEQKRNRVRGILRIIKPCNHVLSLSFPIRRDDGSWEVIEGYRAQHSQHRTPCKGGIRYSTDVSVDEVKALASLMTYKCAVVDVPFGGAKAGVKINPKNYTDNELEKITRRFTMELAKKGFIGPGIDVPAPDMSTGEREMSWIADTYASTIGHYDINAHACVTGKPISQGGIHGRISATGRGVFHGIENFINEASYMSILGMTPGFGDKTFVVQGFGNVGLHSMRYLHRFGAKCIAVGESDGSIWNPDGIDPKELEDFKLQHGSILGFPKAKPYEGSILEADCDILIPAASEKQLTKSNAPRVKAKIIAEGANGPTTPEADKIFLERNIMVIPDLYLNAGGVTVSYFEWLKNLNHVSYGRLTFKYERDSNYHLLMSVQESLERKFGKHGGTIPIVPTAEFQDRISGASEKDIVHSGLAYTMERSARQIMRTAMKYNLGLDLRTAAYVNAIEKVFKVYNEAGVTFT
How it was run: as §1

[6] = molecular target: T6, EEF2 Elongation factor 2 (Homo sapiens, UniProt P13639); details: for isoTOP-ABPP ratio (R) at liganded lysine P13639_K235 / isoTOP-ABPP ratio (R) at liganded lysine P13639_K318: sol, 231
T6 construct: isoTOP-ABPP experiments performed in cell lysates (in vitro); endogenous in cells; host or cells: soluble proteome of human cancer cell lines (MDA-MB-231; Ramos and Jurkat also prepared)
How it was run: as §1

[7] = molecular target: T7, NAA25 N-alpha-acetyltransferase 25, NatB auxiliary subunit (Homo sapiens, UniProt Q14CX7); details: for R value (DMSO/fragment) for probe 1 labeling: Q14CX7_K575; for isoTOP-ABPP ratio (R) at liganded lysine Q14CX7_K575: sol, 231
T7 construct: isoTOP-ABPP experiments performed in cell lysates (in vitro); endogenous in cells; host or cells: soluble proteome of human cancer cell lines (MDA-MB-231; Ramos and Jurkat also prepared)
T7 sequence (Q14CX7 whole entry, the tested form may be a part): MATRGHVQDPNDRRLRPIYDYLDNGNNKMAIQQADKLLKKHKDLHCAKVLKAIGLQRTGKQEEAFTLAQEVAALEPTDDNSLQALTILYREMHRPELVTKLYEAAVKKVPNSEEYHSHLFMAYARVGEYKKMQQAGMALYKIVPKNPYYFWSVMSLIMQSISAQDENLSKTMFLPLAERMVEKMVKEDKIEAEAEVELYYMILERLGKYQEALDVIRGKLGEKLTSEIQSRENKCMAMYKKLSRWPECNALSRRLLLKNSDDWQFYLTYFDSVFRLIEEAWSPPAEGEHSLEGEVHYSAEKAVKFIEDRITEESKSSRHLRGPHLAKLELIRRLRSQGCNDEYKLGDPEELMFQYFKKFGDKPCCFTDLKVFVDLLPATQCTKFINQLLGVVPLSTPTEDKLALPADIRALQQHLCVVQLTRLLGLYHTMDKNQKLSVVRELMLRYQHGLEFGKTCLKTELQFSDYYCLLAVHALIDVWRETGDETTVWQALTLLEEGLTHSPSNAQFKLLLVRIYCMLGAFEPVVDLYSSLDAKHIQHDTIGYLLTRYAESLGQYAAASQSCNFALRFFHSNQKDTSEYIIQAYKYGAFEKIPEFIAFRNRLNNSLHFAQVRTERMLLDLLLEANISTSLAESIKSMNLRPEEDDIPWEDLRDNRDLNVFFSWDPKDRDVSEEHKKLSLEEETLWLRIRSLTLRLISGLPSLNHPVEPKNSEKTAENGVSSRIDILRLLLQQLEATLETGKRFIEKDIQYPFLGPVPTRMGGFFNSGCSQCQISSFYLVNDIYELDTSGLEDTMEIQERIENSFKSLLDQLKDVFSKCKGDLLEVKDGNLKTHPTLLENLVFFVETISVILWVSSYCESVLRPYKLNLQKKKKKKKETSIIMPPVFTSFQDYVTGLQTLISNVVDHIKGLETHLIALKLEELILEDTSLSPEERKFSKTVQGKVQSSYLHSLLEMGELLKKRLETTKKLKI
How it was run: as §1

[8] = Q8N163_K97, 50 uM, 231 sol, in vitro
[9] = Q8N163_K112, 50 uM, 231 sol, in vitro
[10] = P13639_K235, 50 uM, 231 sol, in vitro
[11] = P13639_K318, 50 uM, 231 sol, in vitro

T1 sequence (Q9NZ08 whole entry, the tested form may be a part): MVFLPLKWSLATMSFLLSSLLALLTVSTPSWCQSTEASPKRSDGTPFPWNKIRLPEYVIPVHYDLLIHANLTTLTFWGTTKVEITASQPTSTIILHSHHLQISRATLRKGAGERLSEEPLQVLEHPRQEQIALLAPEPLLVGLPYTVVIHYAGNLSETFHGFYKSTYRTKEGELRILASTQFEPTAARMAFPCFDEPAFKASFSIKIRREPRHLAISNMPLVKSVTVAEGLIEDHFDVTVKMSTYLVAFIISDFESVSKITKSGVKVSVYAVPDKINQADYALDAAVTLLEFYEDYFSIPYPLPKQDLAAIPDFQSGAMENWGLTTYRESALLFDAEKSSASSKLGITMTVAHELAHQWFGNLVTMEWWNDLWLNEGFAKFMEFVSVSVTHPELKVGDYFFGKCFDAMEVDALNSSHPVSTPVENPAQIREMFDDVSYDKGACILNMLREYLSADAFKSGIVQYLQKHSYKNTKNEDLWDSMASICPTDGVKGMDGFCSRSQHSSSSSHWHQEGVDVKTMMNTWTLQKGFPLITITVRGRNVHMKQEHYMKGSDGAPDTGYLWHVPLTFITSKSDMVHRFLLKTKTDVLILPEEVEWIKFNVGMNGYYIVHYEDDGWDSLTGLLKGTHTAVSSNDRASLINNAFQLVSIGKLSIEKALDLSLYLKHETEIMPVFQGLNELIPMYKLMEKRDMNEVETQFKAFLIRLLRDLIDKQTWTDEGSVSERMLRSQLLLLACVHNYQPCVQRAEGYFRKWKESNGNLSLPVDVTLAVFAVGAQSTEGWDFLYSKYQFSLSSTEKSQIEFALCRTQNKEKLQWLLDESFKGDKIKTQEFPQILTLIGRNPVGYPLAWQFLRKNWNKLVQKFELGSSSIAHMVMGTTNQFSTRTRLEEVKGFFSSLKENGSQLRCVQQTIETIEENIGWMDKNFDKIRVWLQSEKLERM

R value (DMSO/fragment) for probe 1 labeling ([1]; 50 uM, 231 sol, in vitro) | R value (DMSO/fragment) for probe 1 labeling ([2]; 50 uM, 231 sol, in vitro) | R value (DMSO/fragment) for probe 1 labeling [3, 8] | R value (DMSO/fragment) for probe 1 labeling [3, 9] | R value (DMSO/fragment) for probe 1 labeling ([4]; 50 uM, 231 sol, in vitro) | R value (DMSO/fragment) for probe 1 labeling ([5]; 50 uM, 231 sol, in vitro) | R value (DMSO/fragment) for probe 1 labeling [6, 10] | R value (DMSO/fragment) for probe 1 labeling [6, 11] | R value (DMSO/fragment) for probe 1 labeling ([7]; 50 uM, 231 sol, in vitro) | SMILES | isoTOP-ABPP ratio (R) at liganded lysine Q13033_K755 ([2]; 50 uM, in vitro) | isoTOP-ABPP ratio (R) at liganded lysine Q8N163_K97 ([3]; 50 uM, in vitro, sol, 231) | isoTOP-ABPP ratio (R) at liganded lysine Q14204_K1649 ([4]; 50 uM, in vitro) | isoTOP-ABPP ratio (R) at liganded lysine P00367_K480 ([5]; 50 uM, in vitro) | isoTOP-ABPP ratio (R) at liganded lysine P13639_K235 ([6]; 50 uM, in vitro) | isoTOP-ABPP ratio (R) at liganded lysine P13639_K318 ([6]; 50 uM, in vitro) | isoTOP-ABPP ratio (R) at liganded lysine Q14CX7_K575 ([7]; 50 uM, in vitro) | further results
2.2 | 1.0 | 1.0 | 1.1 | 1.1 | 2.5 | 2.9 | 5.6 | 2.2 | Cn1cc(CC(=O)Oc2c(F)c(F)c(F)c(F)c2F)c2ccccc21 [fragment 22, Pentafluorophenyl 2-(1-methyl-1H-indol-3-yl)acetate] |  |  |  |  |  |  |  | 
 |  |  |  |  |  |  |  |  | COc1cc(CCC(=O)Oc2ccc([N+](=O)[O-])cc2[N+](=O)[O-])cc(OC)c1OC [fragment 33, 2,4-Dinitrophenyl 3-(3,4,5-trimethoxyphenyl)propanoate] |  |  |  |  |  |  |  | isoTOP-ABPP reactivity ratio at lysine Q9NZ08_K685 ([1]; 50 uM, 231 sol, in vitro): 1.0; isoTOP-ABPP reactivity ratio at lysine Q13033_K755 ([2]; 50 uM, 231 sol, in vitro): 1.8; isoTOP-ABPP reactivity ratio at lysine Q8N163_K97 ([3]; 50 uM, 231 sol, in vitro): 0.7; isoTOP-ABPP reactivity ratio at lysine Q8N163_K112 ([3]; 50 uM, 231 sol, in vitro): 0.9; isoTOP-ABPP reactivity ratio at lysine Q14204_K1649 ([4]; 50 uM, 231 sol, in vitro): 1.1; isoTOP-ABPP reactivity ratio at lysine P00367_K480 ([5]; 50 uM, 231 sol, in vitro): 6.2; isoTOP-ABPP reactivity ratio at lysine P13639_K235 ([6]; 50 uM, 231 sol, in vitro): 1.0; isoTOP-ABPP reactivity ratio at lysine P13639_K318 ([6]; 50 uM, 231 sol, in vitro): 0.9; isoTOP-ABPP reactivity ratio at lysine Q14CX7_K575 ([7]; 50 uM, 231 sol, in vitro): 1.1
1.5 | 0.9 | 0.9 | 1.0 | 1.0 | 1.4 | 1.1 | 1.1 | 1.1 | O=C(Oc1c(F)c(F)c(F)c(F)c1F)C(c1ccccc1)c1ccccc1 [fragment 20, Pentafluorophenyl 2,2-diphenylacetate] |  |  |  |  |  |  |  | 
 |  |  |  |  |  |  |  |  | O=C(Oc1ccc([N+](=O)[O-])cc1[N+](=O)[O-])c1ccc2ccccc2n1 [fragment 35, 2,4-Dinitrophenyl quinoline-2-carboxylate] | 1.0 | 0.8 | 1.0 | 1.8 | 1.1 | 1.1 | 0.9 | 
 |  |  |  |  |  |  |  |  | O=C(CCc1ccc2c(c1)OCO2)Oc1ccc([N+](=O)[O-])cc1[N+](=O)[O-] [fragment 45, 2,4-Dinitrophenyl 3-(benzo[d][1,3]dioxol-5-yl)propanoate] |  |  |  |  |  |  |  | isoTOP-ABPP ratio, lysine Q9NZ08_K685 ([1]; 50 uM_231_sol_in vitro): 1.3; isoTOP-ABPP ratio, lysine Q13033_K755 ([2]; 50 uM_231_sol_in vitro): 1.3; isoTOP-ABPP ratio, lysine Q8N163_K97 ([3]; 50 uM_231_sol_in vitro): 0.8; isoTOP-ABPP ratio, lysine Q8N163_K112 ([3]; 50 uM_231_sol_in vitro): 1.2; isoTOP-ABPP ratio, lysine Q14204_K1649 ([4]; 50 uM_231_sol_in vitro): 1.0; isoTOP-ABPP ratio, lysine P00367_K480 ([5]; 50 uM_231_sol_in vitro, possible other lysine P00367_K477): 2.8; isoTOP-ABPP ratio, lysine P13639_K235 ([6]; 50 uM_231_sol_in vitro): 1.0; isoTOP-ABPP ratio, lysine P13639_K318 ([6]; 50 uM_231_sol_in vitro): 1.0; isoTOP-ABPP ratio, lysine Q14CX7_K575 ([7]; 50 uM_231_sol_in vitro): 1.2
 |  |  |  |  |  |  |  |  | O=C(Oc1ccc([N+](=O)[O-])cc1[N+](=O)[O-])c1ccccc1Nc1cccc(C(F)(F)F)c1 [fragment 40, 2,4-Dinitrophenyl 2-((3-(trifluoromethyl)phenyl)amino)benzoate] | 1.2 | 1.0 | 0.8 | 1.2 | 0.9 | 0.9 | 0.8 | isoTOP-ABPP ratio (R) at liganded lysine Q9NZ08_K685 ([1]; 50 uM, in vitro, sol, 231): 1.1; isoTOP-ABPP ratio (R) at liganded lysine Q8N163_K112 ([3]; 50 uM, in vitro, sol, 231): 1.5
